Laboratory results: the NIST ThermoML archive (doi:10.1021/je900468u)

Legend:
[1] = refractive index (Na D-line) (dimensionless); xn = mol fraction of the nth substance listed; conditions: 101 kPa, Liquid, Standard Abbe refractometry
[2] = xn = mol fraction of the nth substance listed; conditions: 101 kPa, Liquid; for speed of sound: Pulse-echo method

CC1CCCCC1 [methylcyclohexane] + Cc1ccccc1
Conditions | mass density, [2] [kg/m3] | refractive index, [1] | speed of sound, [2] [m/s]
283.15 K, x1 = 0.05 | 869.8 | 1.49797 | 1363
283.15 K, x1 = 0.0998 | 863.7 | 1.49331 | 1356
283.15 K, x1 = 0.198 | 852 | 1.48436 | 1342
283.15 K, x1 = 0.2951 | 841 | 1.47614 | 1330
283.15 K, x1 = 0.3968 | 830.3 | 1.46797 | 1320
283.15 K, x1 = 0.4959 | 820.3 | 1.46042 | 1311
283.15 K, x1 = 0.5973 | 810.7 | 1.45319 | 1302
283.15 K, x1 = 0.697 | 801.8 | 1.44643 | 1296
283.15 K, x1 = 0.7954 | 793.5 | 1.44018 | 1290
283.15 K, x1 = 0.8932 | 785.8 | 1.4342 | 1285
283.15 K, x1 = 0.9487 | 781.6 | 1.43118 | 1283
283.15 K, x1 = 1 | 777.9 | 1.42833 | 1281
298.15 K, x1 = 0.05 | 855.9 | 1.48937 | 1297
298.15 K, x1 = 0.0998 | 849.9 | 1.48481 | 1290
298.15 K, x1 = 0.198 | 838.2 | 1.47597 | 1276
298.15 K, x1 = 0.2951 | 827.4 | 1.4678 | 1264
298.15 K, x1 = 0.3968 | 816.8 | 1.45982 | 1253
298.15 K, x1 = 0.4959 | 806.9 | 1.45225 | 1244
298.15 K, x1 = 0.5973 | 797.4 | 1.44519 | 1236
298.15 K, x1 = 0.697 | 788.6 | 1.4385 | 1229
298.15 K, x1 = 0.7954 | 780.4 | 1.43233 | 1223
298.15 K, x1 = 0.8932 | 772.7 | 1.42635 | 1219
298.15 K, x1 = 0.9487 | 768.6 | 1.42344 | 1216
298.15 K, x1 = 1 | 765.1 | 1.42062 | 1215
